We go through 2 compounds from ChEMBL document CHEMBL1126725, “Enantioselectivity of cocaine recognition sites: binding of (1S)- and (1R)-2 beta-carbomethoxy-3 beta-(4-iodophenyl)tropane (beta-CIT) to monoamine transporters” (J Med Chem, 1993).

One test is filed under the species Rattus norvegicus. Description: (§1) Tested for its ability to displace [125I]- (1R)-beta-CIT with rat striatal membranes. The arrangement: species or system Membrane. The note with it: Striatum.
Test [1] concerns the target Sodium-dependent serotonin transporter (Homo sapiens, UniProt P31645). Nature of the test: Compounds binding ability to serotonin transporter was evaluated by displacing [3H]paroxetine in baboon brain. Further details: species or system Papio hamadryas.
The nature of test [2]: Tested for its ability to displace [125I]- (1R)-beta-CIT with rat cortical membranes.
Test [3] in a line: as §1. The arrangement: species or system Striatum, Membrane.

Chain of Sodium-dependent serotonin transporter (P31645 whole entry): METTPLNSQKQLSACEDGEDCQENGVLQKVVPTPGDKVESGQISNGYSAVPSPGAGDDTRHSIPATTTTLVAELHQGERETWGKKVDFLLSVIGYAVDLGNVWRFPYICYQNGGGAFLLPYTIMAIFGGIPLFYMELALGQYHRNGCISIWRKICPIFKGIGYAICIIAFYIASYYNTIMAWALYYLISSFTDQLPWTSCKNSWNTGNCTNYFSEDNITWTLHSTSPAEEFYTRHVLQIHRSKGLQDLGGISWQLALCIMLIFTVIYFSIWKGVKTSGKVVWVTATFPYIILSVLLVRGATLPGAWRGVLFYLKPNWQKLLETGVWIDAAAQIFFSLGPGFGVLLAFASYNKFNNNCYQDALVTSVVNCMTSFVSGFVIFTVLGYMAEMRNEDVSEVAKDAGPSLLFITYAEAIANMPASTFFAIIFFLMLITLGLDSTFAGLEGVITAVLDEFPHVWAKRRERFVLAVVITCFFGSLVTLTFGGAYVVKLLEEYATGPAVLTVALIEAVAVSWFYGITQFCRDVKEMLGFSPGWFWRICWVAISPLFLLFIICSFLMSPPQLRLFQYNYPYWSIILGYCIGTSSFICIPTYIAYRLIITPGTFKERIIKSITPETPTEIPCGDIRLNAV

A word on the IC50: it is the concentration at which inhibition is half-maximal. Read a high IC50 as weaker potency. With `COC(=O)C1C2CC[C@H](C[C@@H]1c1ccc(I)cc1)N2C` (stereo not given in full), the IC50 in the test filed under Rattus norvegicus came out at 0.42 nM; in test [1] it was 3.8 nM; in test [2] it was 0.55 nM.

Consider `COC(=O)[C@@H]1C2CC[C@H](C[C@@H]1c1ccc(I)cc1)N2C`, for which the IC50 in test [3] stood at 5700 nM; in test [2], 450 nM.
